# Data reported in patent US20240302368A1, “MIGRATION OF HUMAN PERIPHERAL LEUKOCYTES IN RESPONSE TO CHEMOTACTIC FACTORS DURING PREGNACY” (The Governors of the University of Alberta, priority 2021, published 2024).
# Entries after “also recorded” stand apart in the source; their conditions may differ.
# How the values were obtained:
# CD-1 mice [1] = assay: Neutrophil (Ly-6G+) invasion of mouse lower uterus and fetal brain, immunohistochemistry; assay type: in vivo; settings: IL-1β on GD 16 without or with rytvela; compared to sham control; p<0.05
# Description: (§1) CD-1 mice were ordered from Charles-River Laboratories Canada (Montreal, QC, Canada) and housed by Health Sciences Laboratory Animal Services at the University of Alberta. (Edmonton, AB, Canada) on a standard diet. Six groups of mice were euthanized at GD15, 17, 18, 18.5, 19 during spontaneous labor, and post-partum (PP)-1 Four groups of mice were anesthetized under isoflurane and a 1.5 cm-tall median incision was made in the lower abdominal wall. The lower segment of the right uterine hom was exposed, IL-1β (3 μg) or vehicle (0.9% saline) was injected between two fetal membranes, and the abdominal muscle layer and skin were sutured. Rytvela (1 mgikg, Elim Biopharmaceuticals, Hayward, CA) or vehicle (0.9% saline) was injected i.p. in a total volume of 100 μL saline, the first dose of which was given 30 min prior to administration of stimuli and three doses every 12 h thereafter. Animals were monitored for the onset of preterm labor (PTL) using infrared video camera recording commencing at GD16.5. Mice were euthanized at the onset of PTL or at GD17 From all ten groups of mice, lower uteri, upper uteri, placentas, fetal membranes and cervices were collected and normalized to wet tissue weight (100 mg/mL) in Dulbecco's Modified Eagle's Medium (DMEM) F-12 (Thermo Fisher Scientific, MA, USA). These tissues were homogenized by TissueLyser II (QIAGEN, Hilden, Germany) according to the manufacturer's protocol and centrifuged at 4° C., 13,000×g for 10 min to extract total protein. Maternal whole blood was collected via cardiac puncture. Whole fetuses (n=2 per dam) were also collected.
# Six cryosections (7 μm) per treatment group were prepared from snap-frozen lower uteri and fetal heads (n=2 per dam) and stained for neutrophils using a goat anti-mouse Ly-6G antibody (Invitrogen, Carlsbad, CA, USA) and a rat anti-goat secondary antibody tagged with an Alexa Fluor 488 fluorescence marker (Invitrogen). Cells were counterstained using Hoechst 33342 (Thermo Fisher Scientific) and tissue homology was confirmed with a hematoxylin and eosin stain (Thermo Fisher Scientific). Four different fields (20× optical zoom) were counted per section by two observers blinded to the specimen details. Areas containing blood vessels and leukocytes within blood vessels were excluded. The arithmetic mean was calculated for each sample between the two observers. In the fetus, we focused on leukocyte invasion of the brain because of the evidence associating maternal inflammation and adverse outcomes to the fetal brain (15, 28).
# [2] = mouse; cited from earlier work
# [3] = system: peripheral mouse leukocytes; assay: Cytokine mRNA abundance in peripheral leukocytes of pregnant mice, RT-qPCR; assay type: in vivo; settings: GD 17 after IL-1β on GD 16, without or with rytvela; p<0.05
# Description: (§2) CD-1 mice were ordered from Charles-River Laboratories Canada (Montreal, QC, Canada) and housed by Health Sciences Laboratory Animal Services at the University of Alberta. (Edmonton, AB, Canada) on a standard diet. Six groups of mice were euthanized at GD15, 17, 18, 18.5, 19 during spontaneous labor, and post-partum (PP)-1 Four groups of mice were anesthetized under isoflurane and a 1.5 cm-tall median incision was made in the lower abdominal wall. The lower segment of the right uterine hom was exposed, IL-1β (3 μg) or vehicle (0.9% saline) was injected between two fetal membranes, and the abdominal muscle layer and skin were sutured. […] Animals were monitored for the onset of preterm labor (PTL) using infrared video camera recording commencing at GD16.5. […]
# Total RNA was extracted from mouse whole blood using the RNeasy protect animal blood system (Qiagen, Hilden, Germany) according to the manufacturer's protocol. RNA concentration were determined using a NanoDrop 1000 spectrophotometer to measure the optical density (OD) photometrically at 280 nm and 260 nm (an OD260 nm/280 nm ratio of >1.8 was considered protein-free RNA). cDNA was synthesized from 500 ng RNA using qScript cDNA SuperMix (Quanta Biosciences, MA, USA) according to the manufacturer's protocol. […]
# mouse leukocytes = assay: Mouse leukocyte migration assay (mLMA) with GD 18.5 lower uterus chemoattractant; assay type: in vivo; settings: GD 17 after IL-1β on GD 16, without or with rytvela, p<0.05
# Description: (§3) CD-1 mice were ordered from Charles-River Laboratories Canada (Montreal, QC, Canada) and housed by Health Sciences Laboratory Animal Services at the University of Alberta. (Edmonton, AB, Canada) on a standard diet. Six groups of mice were euthanized at GD15, 17, 18, 18.5, 19 during spontaneous labor, and post-partum (PP)-1 Four groups of mice were anesthetized under isoflurane and a 1.5 cm-tall median incision was made in the lower abdominal wall. The lower segment of the right uterine hom was exposed, IL-1β (3 μg) or vehicle (0.9% saline) was injected between two fetal membranes, and the abdominal muscle layer and skin were sutured. Rytvela (1 mgikg, Elim Biopharmaceuticals, Hayward, CA) or vehicle (0.9% saline) was injected i.p. in a total volume of 100 μL saline, the first dose of which was given 30 min prior to administration of stimuli and three doses every 12 h thereafter. Animals were monitored for the onset of preterm labor (PTL) using infrared video camera recording commencing at GD16.5. […]
# (§4) Total leukocytes were isolated from whole blood using HetaSep (Stemcell Technologies Canada Inc., BC. Canada) according to the manufacturer's protocol. […] Fluorescence in each well was measured using a Fluoroskan Ascent (Thermo Fisher Scientific), and the number of chemoattracted leukocytes was calculated using 4 parameter logistic regression.
# CD-1 mice [4] = assay: IL-1β-induced preterm birth (PTB) and fetal death in pregnant mice; assay type: in vivo, mouse; settings: for fetal death: IL-1β on GD 16 without or with rytvela, fetuses at GD 17
# Description: as §1
# IL-1 receptor (IL-1R) = target: T1, IL-1 receptor (IL-1R) (Mus musculus, UniProt P13504); settings: PTB induced by IL-1β, LTA or LPS; cited from earlier work
# T1 construct: host or cells: pregnant mice, in vivo
# T1 sequence (P13504 20-576): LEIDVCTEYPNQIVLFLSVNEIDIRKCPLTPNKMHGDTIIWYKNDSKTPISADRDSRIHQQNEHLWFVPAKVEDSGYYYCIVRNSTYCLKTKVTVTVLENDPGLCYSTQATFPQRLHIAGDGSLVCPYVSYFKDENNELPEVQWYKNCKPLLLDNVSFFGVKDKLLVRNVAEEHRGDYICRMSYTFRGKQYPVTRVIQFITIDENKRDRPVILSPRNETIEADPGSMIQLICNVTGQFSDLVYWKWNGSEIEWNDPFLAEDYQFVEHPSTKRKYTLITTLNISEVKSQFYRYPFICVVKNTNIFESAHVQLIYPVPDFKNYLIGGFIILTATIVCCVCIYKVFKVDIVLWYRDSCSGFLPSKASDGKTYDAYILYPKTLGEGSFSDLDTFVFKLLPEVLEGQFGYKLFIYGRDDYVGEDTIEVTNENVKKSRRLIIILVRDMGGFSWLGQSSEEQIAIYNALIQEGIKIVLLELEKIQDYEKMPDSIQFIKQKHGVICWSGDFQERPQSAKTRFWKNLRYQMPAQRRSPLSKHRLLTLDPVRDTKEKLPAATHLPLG
# IL-1 receptor = target: T2, IL-1 receptor (Mus musculus, UniProt P13504); settings: LPS-treated mice; cited from earlier work
# T2 construct: host or cells: pregnant mice, in vivo
# T2 sequence (P13504 20-576): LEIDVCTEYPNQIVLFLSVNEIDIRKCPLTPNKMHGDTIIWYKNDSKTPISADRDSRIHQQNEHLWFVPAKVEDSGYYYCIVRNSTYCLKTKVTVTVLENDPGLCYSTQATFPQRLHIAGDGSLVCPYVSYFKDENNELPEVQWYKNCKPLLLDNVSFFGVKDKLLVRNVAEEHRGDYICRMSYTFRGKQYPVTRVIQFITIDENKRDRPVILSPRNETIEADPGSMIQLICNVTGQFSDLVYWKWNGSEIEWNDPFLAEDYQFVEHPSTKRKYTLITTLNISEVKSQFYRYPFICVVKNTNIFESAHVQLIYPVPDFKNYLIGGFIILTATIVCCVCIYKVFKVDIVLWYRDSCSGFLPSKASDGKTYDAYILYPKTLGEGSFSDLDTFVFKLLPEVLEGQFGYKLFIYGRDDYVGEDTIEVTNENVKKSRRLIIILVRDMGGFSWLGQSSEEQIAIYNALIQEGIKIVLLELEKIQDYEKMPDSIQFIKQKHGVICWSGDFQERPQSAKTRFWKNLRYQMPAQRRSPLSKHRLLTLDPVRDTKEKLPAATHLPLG
# mouse lower uterus [5] = assay: KC and MIP-2 protein in mouse lower uterus extracts, multiplex; assay type: in vivo; settings: IL-1β on GD 16, lower uterus at GD 17
# Description: as §2
# Mouse lower uterus tissue was suspended in DMEM-F12 medium (Thermo Fisher Scientific Inc., Ottawa, ON, Canada) at 100 mg wet tissue weight/mL and homogenized by TissueLyser II (Qiagen, Hilden, Germany) according to the manufacturer's instructions. […] Keratinocyte chemoattractant (KC) and macrophage inflammatory protein (MIP)-2 levels were measured by Bio-Plex Multiplex Immunoassay kit (Bio-Rad Laboratories, Hercules, CA, USA) according to the manufacturer's instructions.
# hFM explants = hFM explants treated with IL-1β; conditioned medium tested in LMA; assay type: cell-based, human
# Description: Leukocyte migration assay (LMA). The LMA was carried out with the Modified Boyden chemotaxis chambers (AP48; Neuro Probe, Gaithersburg, MD, USA) as we published (19). The chamber is divided into the upper and lower berths. Twenty-five microliters of fetal membrane extracts were placed in the lower chamber of each well. DMEM, as a negative control, was placed in the lower chamber. A polycarbonate membrane with 3 μm pores (Neuro Probe, Gaithersburg. MD, USA) was next placed over the lower chamber, followed by a rubber gasket. Then 100,000 isolated leukocytes from whole blood of pregnant women were placed in the upper chamber of each well. The chambers were incubated for 90 min at 37′C in a humidified air incubator containing 5% CO2. After incubation, migrated leukocytes were removed from the lower chamber and put into 5 mL BD Falcon™ polystyrene round bottom tubes (Thermo Fischer Scientific K.K., Yokohama, Japan). Three hundred microliters of OptiLyse (Beckman Coulter, Beckman Coulter, Inc., Brea, CA, USA) were added to lyse RBCs, and the sample was vortexed immediately for 1 sec. The tube was incubated for 15 min at room temperature (20-25° C.) while protected from light. […] 1×PBS was added to each tube. […] The lower chamber samples were then kept covered in a 4′C cold room until quantification using flow cytometry (BD FACS Verse, BD Biosciences, Tokyo, Japan). […]
# mouse lower uterus [6] = assay: Mouse lower uterine chemoattractant assessed by leukocyte migration assay (LMA); assay type: in vivo; settings: IL-1β on GD 16, chemoattractant on GD 17
# Description: as §3
# as §4, with “regression. […]” for “regression.”
# TL leukocytes = TL leukocytes incubated with hFM conditioned medium -/+ IL-1β; double conditioned medium as chemoattractant in LMA; assay type: cell-based, human; settings: TL leukocytes treated with IL-1β plus hFM explant conditioned medium; fresh TL leukocytes migrate
# Description: Leukocyte migration assay (LMA). The LMA for FIGS. 6 and 7 was performed as described above with the exception that 200,000 leukocytes were placed into the upper chamber. The LMA for FIGS. 3, 5 and FIG. 10 was performed using non-commercial, 3D printed Boyden chambers that produced nearly identical results to our published work with commercial Boyden chambers with the exception that the cutoff for predicting delivery within 7 days was 4575 cells (see FIG. 10 for more information).
# Leukocyte Incubation with hFM Conditioned Medium. Conditioned medium from hFM explants was prepared as described previously (23). TL leukocytes were incubated with this single conditioned medium for 1 h at 37° C. and gentle agitation using a stir bar to prevent clumping. The supernatant was isolated via density centrifugation and used as the chemoattractant in an LMA to assess the further contribution of the leukocytes to the conditioned medium. This is referred to as ‘double conditioned medium.’ The pelleted TL leukocytes were resuspended in RPMI, and their responsiveness to GCF was assessed using an LMA.
Molecule,neutrophil density in fetal brain (CD-1 mice [1]),neutrophil density in lower (maternal) uterus (CD-1 mice [1]),transfer from mother to fetus [2],"leukocyte mRNA abundance of IL-1β, IL-6, TNF-α and CCL2 [3]",mouse leukocyte migration (mouse leukocytes),"PTB (in words) (CD-1 mice [4]; FIG. 11A, n=5-7 per group)",fetal death (CD-1 mice [4]),fetal death (CD-1 mice [4]; listed as Rytvela),PTB rate (CD-1 mice [4]; rytvela co-administered with IL-1β (GD 16)) [%],PTB (IL-1 receptor (IL-1R)),neutrophil infiltration (invasion) of fetal membranes (IL-1 receptor),KC protein in lower uterus (mouse lower uterus [5]),MIP-2 protein in lower uterus (mouse lower uterus [5]),"chemoattractant release from hFM explants (hFM explants; TNL and TL hFM explants -/+ IL-1β, TL leukocytes in LMA)","TNL leukocyte sensitivity to migration after hFM explant conditioned medium (hFM explants; hFM explants pretreated with IL-1β 6 h, TNL leukocytes incubated 1 h, TL chemoattractant)",lower uterine chemoattractant (mouse lower uterus [6]),"PTB rate (CD-1 mice [4]; IL-1β administered on GD 16, PTB on GD 17) [%]",leukocyte chemoattractant release (TL leukocytes)
rytvela,blocked the increase in neutrophil density,blocked the increase in neutrophil density,does not transfer from mother to fetus,blocked,blocked,inhibited,normal GD 17 fetuses,prevented fetal death,0,blocked,blocked,–,–,–,–,–,–,–
"IL-1β: Interleukin (IL)-1β, mediator of infectious and sterile-inflammatory preterm birth; used to induce PTB in mice (protein, UniProt P10749 118-269, looked up) Interleukin-1 beta: VPIRQLHYRLRDEQQKSLVLSDPYELKALHLNGQNINQQVIFSMSFVQGEPSNDKIPVALGLKGKNLYLSCVMKDGTPTLQLESVDPKQYPKKKMEKRFVFNKIEVKSKVEFESAEFPNWYISTSQAEHKPVFLGNNSGQDIIDFTMESVSS",increased detection of Ly-6G+ neutrophils,increased detection of Ly-6G+ neutrophils,–,–,increased leukocyte migration,–,increased fetal death; also recorded: undergoing resorption,–,–,–,–,stimulated increases,stimulated increases,did not promote more chemoattractant release,had no effect,did not stimulate an increase,86,greater leukocyte chemoattractant release
